In publication PMC3695357, “Identification of Novel IGF1R Kinase Inhibitors by Molecular Modeling and High-Throughput Screening” (Acta Naturae, 2013):

How the values were obtained:
Assay type in all cases: biochemical
[1] = target: Syk kinase (Homo sapiens, UniProt P43405); assay: Syk ADP-Glo kinase selectivity assay, single concentration; conditions: remaining kinase activity at 40 μM compound, 50 μM ATP
Description: (§1) Kinase selectivity assays with InsR (dose-response measurements) and Met, Syk and BTK kinases (single point compound concentrations) using the ADP-Glo readout system were run under optimized experimental conditions similar to the IGF1R assay with regard to the kinetic parameters of kinase reactions.
(§2) The amounts of the Met, Syk, and BTK enzymes and the incubation time were optimized to ensure an ATP conversion not higher than 20% in all cases. The typical assay window (signal/background) was 3–5 for all kinases. The final volumes of the Met, Syk, and BTK kinase assay reaction mixtures were 5 μL. Two μL of the enzyme solution in a 1× reaction buffer (6 ng Met, 8 ng BTK, 4 ng Syk), 1 μL of the compound solution in a 2× reaction buffer, the ATP and substrate mixture in a 0.5× reaction mixture were added sequentially. The composition of the 1× reaction buffer was 40 mM Tris, 20 mM magnesium chloride, 0.1 mg/ml bovine serum albumin, 500 μM DTT at pH 7.5 with 1% final concentration of the DMSO, 50 μM ATP, and 0.2 mg/ml Poly(Glu4, Tyr1) substrates. The buffer was supplemented with 2 mM manganese (II) chloride in the case of BTK kinase. Compounds were tested at 40 μM concentrations. In each experiment, 6 wells with the enzyme, but no added compounds, were used as negative inhibition controls; 6 wells without tested compounds and the enzyme and 6 wells with the enzyme and 0.5–1 μM staurosporine were used as positive inhibition controls. Pre-incubation of the reaction mixture with compounds prior to ATP addition was performed for 20 min at 25°C in all experiments. The incubation of the reaction mixture lasted for 25 min at 37°C. All compounds were tested in 4 to 6 repeats. Conditions of ADP detection were as follows: 40 min incubation with an ADP-Glo reagent, followed by 30 min with a detection reagent at 25°C. Luminescence was read using a BMG Polarstar Omega reader at a gain setting of 4095 and measurement time of 0.5 s.

[2] = target: BTK kinase (Homo sapiens, UniProt Q06187); assay: BTK ADP-Glo kinase selectivity assay, single concentration; conditions: remaining kinase activity at 40 μM compound, 50 μM ATP
BTK kinase, sequence (Q06187 whole entry): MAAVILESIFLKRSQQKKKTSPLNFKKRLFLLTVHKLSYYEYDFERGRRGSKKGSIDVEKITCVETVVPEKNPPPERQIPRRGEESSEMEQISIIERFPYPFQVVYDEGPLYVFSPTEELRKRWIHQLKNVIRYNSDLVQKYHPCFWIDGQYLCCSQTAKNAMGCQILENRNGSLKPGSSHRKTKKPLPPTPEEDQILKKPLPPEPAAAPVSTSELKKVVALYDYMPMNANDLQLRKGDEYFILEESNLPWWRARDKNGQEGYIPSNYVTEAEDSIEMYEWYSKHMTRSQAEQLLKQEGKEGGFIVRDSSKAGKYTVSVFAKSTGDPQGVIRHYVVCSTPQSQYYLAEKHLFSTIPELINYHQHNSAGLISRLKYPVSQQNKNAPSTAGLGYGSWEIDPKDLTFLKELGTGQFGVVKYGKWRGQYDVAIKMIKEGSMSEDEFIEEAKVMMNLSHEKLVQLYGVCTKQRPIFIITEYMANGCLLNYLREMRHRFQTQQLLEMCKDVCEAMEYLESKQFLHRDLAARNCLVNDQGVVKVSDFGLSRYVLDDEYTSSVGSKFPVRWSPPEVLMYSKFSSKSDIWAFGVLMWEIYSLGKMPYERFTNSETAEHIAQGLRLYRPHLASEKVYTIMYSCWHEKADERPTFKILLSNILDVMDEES
Description: as §1, §2

[3] = target: Met kinase (Homo sapiens, UniProt P08581); assay: Met ADP-Glo kinase selectivity assay, single concentration; conditions: remaining kinase activity at 40 μM compound, 50 μM ATP
Met kinase, sequence (P08581 25-1390): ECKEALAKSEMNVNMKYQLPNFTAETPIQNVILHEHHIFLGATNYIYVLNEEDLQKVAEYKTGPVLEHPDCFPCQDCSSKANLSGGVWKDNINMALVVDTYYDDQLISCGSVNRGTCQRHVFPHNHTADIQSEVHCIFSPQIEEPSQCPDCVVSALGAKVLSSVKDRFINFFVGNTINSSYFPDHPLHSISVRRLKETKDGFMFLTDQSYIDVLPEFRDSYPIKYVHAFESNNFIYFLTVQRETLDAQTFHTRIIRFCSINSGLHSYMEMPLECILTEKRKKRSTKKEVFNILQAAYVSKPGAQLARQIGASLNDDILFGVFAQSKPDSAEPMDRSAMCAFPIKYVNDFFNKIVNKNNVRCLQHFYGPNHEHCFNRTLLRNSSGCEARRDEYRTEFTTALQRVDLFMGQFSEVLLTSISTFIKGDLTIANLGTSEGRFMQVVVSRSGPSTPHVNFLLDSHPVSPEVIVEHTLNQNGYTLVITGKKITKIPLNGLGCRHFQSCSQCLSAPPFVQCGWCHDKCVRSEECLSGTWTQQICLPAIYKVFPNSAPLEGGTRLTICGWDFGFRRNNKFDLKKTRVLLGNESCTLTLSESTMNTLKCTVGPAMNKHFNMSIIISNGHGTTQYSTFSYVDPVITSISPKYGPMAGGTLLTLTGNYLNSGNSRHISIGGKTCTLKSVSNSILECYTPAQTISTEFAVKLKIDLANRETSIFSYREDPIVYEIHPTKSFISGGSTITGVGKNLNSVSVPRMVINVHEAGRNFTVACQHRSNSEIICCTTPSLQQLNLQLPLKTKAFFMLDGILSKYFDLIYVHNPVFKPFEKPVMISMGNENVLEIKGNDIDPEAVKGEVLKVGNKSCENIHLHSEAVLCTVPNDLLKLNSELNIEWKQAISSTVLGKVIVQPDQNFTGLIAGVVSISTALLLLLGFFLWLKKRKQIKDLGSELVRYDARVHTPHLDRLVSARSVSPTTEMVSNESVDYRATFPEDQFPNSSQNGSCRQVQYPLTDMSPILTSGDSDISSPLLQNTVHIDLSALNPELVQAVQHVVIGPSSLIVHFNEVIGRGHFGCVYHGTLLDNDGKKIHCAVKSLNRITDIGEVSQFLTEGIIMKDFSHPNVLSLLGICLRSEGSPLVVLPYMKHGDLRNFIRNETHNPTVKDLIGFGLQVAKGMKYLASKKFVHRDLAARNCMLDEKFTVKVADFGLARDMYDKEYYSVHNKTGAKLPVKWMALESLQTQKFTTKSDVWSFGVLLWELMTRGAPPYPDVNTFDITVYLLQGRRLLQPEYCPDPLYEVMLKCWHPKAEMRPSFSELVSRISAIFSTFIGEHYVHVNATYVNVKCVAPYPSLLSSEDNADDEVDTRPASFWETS
Description: as §1, §2

[4] = target: T1, IGF1R kinase (Homo sapiens, UniProt P08069); assay: Michaelis-Menten kinetics / Lineweaver-Burk competition analysis; conditions: Lineweaver-Burk plot; for inhibition mechanism with regard to ATP: IGF1Rtide 143 μg/ml, ATP titrated; for inhibition mechanism with regard to the substrate: poly(Glu4,Tyr1) titrated, ATP 250 μM
T1 construct: This assay utilizes a recombinant intracellular kinase domain fragment of IGF1R; purchased Promega Corp
T1 sequence (P08069 999-1274 limits assumed): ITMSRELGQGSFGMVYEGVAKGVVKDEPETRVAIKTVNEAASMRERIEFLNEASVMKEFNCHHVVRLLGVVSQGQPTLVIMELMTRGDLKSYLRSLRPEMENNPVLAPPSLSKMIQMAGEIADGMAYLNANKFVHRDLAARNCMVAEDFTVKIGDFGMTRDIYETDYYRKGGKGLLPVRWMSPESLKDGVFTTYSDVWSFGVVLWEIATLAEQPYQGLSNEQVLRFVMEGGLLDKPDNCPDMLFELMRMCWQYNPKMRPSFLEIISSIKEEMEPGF
Description: (§3) Multi-well liquid dispensing for setting up assays was performed using either the robotic liquid handler PlateMate Plus or the manual electronic multichannel micropipettes Matrix Impact (Thermo Scientific, Hudson, NH, USA). High-throughput Screening (HTS), kinase selectivity, and dose-response (IC50) assays were read in the luminescence mode using the PolarStar Omega reader (BMG Labtech, Ortenberg, Germany) or M5 reader (Molecular Devices Corp., Sunnyvale, CA). IGF1R ADP-Glo data in relative luminescence units (RLU) were collected from the plate readers, and the percentage of activity (% Activity) was determined for each point as follows: % Activity = 100*(RLU sample – RLU no kinase control avg)/(RLU kinase control avg – RLU no kinase control avg). The screening data were processed and visualized using Microsoft Excel templates designed to calculate the inhibition values, the Z’-factor, and GraphPad Prism 5 (GraphPad Software, Inc., La Jolla, CA) for IC50 analysis. The doseresponse curves of Percent Activity were fit in Prism, using a sigmoidal variable slope fit with the maximum % activity and the minimum % activity fixed at 100% and 0%, respectively. The Z′ factor, a statistical measure of variability and reproducibility for HTS assays, was determined using the following formula: Z′ = 1-[3 × (SDsample+SDcontol)/|Msample-Mcontrol|] [12], where SD denotes the standard deviation and M denotes the mean for the samples and controls, respectively. Prior to starting HTS, assay conditions were optimized and validated with regard to the maximum ATP turnover (never exceeding 20%), an acceptable signal-to-background ratio (“assay window”) of at least 6, an acceptable Z’-factor of at least 0.6, as well as day-to-day and plate-to-plate reproducibility of the screening data. All primary screening was performed at 20 μM compound concentrations, and some of the weak hits were subsequently re-tested at higher concentrations (40 or 80 μM) for confirmation. Statistically significant HTS hits in the primary screening were defined as those that produced a kinase activity signal at least three standard deviations lower than the mean of the assay plate run (not including the plate controls). Lineweaver- Burk plots were created in Excel or Prism using the standard algorithms. All assay development and validation and high-throughput screening procedures were carried out according to the general guidelines as published on the U.S. National Chemical Genomics Center web site (NC GC Assay Guidance Manual and High-throughput Assay Guidance Criteria, http://www.ncbi.nlm.nih.gov/books/NBK53196/).
Serial dilutions of ATP and substrate polypeptide poly(Glu4,Tyr1) were tested in IGF1R kinase assays with the inhibitors L1 and T4 to produce the kinetic data for Lineweaver-Burk plots. […]

[5] = target: T1, IGF1R kinase; assay: IGF1R ADP-Glo kinase assay, dose-response; conditions: for IC50: ADP-Glo, 8-point curves from 100 μM, 50 μM ATP; for selectivity for IGF1R versus InsR: from IC50 values of Table 1
Description: as §3
IGF1R high throughput screening (HTS) assays using the IGF1R Kinase System and ADP-Glo readout system (Promega Corp.) were performed in a final volume of 7 μL per test compound using a 384-well small volume microplate format. All liquid dispensing was done using the PlateMate Plus robotic liquid handler. 3 μL aliquots of the enzyme/substrate mixture containing 1 μg of the IGF1Rtide peptide substrate and 4 ng of recombinant IGF1R kinase in a 0.66× assay buffer were transferred to the plate wells. The assay buffer (1×) consisted of 40 mM Tris chloride, 20 mM magnesium chloride, 0,1 mg/ml bovine serum albumin, 2 mM manganese chloride, and 250 μM dithiothreitol (DTT ). To add the tested compounds to the reaction, starting stocks of 10 mM compounds in dimethyl sulfoxide (DMSO) were diluted with DMSO to 2 mM. Next, 3 μL aliquots of 2 mM compound stock solutions in DMSO were transferred to 83 μL volumes of a 1× reaction buffer and thoroughly mixed. Aqueous compound solution aliquots of 2 μL were then transferred into the assay plate to get a final concentration of each compound of 20 μM in 1% DMSO. The plates were pre-incubated at 27°C for 10 min with gentle shaking (300 rpm). The assay was started by adding 2 μL of the ATP stock solution to the reaction mixture to achieve a final ATP concentration of 50 μM. […]

[6] = target: T2, InsR kinase (Homo sapiens, UniProt P06213); assay: InsR ADP-Glo kinase assay, dose-response; conditions: for IC50: ADP-Glo, 8-point curves from 100 μM; for stronger inhibition of InsR versus IGF1R: from IC50 values of Table 1
T2 construct: the amount of recombinant insulin receptor kinase was 2 ng per well
T2 sequence (P06213 28-1382): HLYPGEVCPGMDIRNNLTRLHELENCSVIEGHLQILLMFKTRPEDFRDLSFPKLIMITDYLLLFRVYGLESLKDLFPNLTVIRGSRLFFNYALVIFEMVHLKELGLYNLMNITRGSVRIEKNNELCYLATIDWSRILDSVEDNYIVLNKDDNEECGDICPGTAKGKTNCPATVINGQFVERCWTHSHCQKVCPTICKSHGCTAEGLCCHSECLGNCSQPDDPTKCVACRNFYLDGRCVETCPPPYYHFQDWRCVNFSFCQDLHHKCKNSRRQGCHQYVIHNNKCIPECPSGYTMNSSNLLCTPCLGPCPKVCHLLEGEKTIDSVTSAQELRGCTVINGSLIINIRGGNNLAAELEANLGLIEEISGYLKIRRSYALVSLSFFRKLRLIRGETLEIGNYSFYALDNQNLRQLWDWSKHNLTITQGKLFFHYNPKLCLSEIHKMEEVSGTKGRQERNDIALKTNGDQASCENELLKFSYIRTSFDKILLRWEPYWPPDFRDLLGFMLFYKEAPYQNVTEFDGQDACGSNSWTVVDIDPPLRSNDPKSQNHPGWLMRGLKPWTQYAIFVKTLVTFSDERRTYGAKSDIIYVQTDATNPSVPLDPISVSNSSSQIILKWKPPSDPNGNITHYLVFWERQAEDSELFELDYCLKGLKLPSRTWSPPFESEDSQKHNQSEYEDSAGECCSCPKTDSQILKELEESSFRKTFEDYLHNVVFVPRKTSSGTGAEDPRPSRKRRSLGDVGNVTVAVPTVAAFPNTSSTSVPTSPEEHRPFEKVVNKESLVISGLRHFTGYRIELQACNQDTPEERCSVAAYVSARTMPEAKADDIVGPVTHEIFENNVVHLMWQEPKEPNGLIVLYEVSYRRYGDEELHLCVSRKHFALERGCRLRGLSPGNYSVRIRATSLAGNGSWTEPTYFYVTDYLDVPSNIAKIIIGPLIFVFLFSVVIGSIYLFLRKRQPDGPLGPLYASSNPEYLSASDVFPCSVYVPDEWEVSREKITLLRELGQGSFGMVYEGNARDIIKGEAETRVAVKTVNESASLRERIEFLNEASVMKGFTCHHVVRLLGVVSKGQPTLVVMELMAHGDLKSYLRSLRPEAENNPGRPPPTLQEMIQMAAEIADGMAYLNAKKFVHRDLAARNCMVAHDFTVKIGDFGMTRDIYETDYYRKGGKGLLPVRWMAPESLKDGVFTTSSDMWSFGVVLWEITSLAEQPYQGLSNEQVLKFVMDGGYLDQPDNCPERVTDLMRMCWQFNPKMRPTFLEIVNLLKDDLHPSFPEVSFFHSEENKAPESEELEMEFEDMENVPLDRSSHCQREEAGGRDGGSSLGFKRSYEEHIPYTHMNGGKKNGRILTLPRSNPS
Description: as §1
Dose-response and IC50 measurements for the confirmed screening hits were conducted for IGF1R and InsR kinases. The conditions were similar to the HTS conditions described above, except that the compounds were plated in 8-point curves serially diluted 1:2 from 100 μM top concentrations and with a 1% final DMSO throughout, in quadruplicates for each compound dilution point. The time of incubation of kinase reaction mixtures was 2.5 or 4.5 hours at 27°C in different experiments both for the insulin kinase receptor and IGF1R, the dithiotreitol (DTT ) concentration was 500 μM, and the amount of recombinant insulin receptor kinase was 2 ng per well. DTT concentration was elevated to enhance the stability of the enzymes during 4.5 h incubation experiments. Compounds were typically serially 2-fold diluted in pure DMSO starting from 10 mM down to 19.5 μM to produce the final concentrations ranging from […] in a 1% DMSO-aqueous reaction buffer.

SMILES	Activity Syk, % [1]	Activity Btk, % [2]	Activity Met, % [3]	inhibition mechanism with regard to ATP [4]	inhibition mechanism with regard to the substrate [4]	IC50 [5]	selectivity for IGF1R versus InsR [5]	IC50 [6]	stronger inhibition of InsR versus IGF1R [6]
O=C(Nc1ccc2c(c1)OCCO2)c1ccc2c(c1)OCCO2 [Compound L1]	109%	98%	102%	non-competitive inhibition	non-competitive inhibition	18 µM	essentially nonselective	22 µM	–
CCOc1ccc(NS(=O)(=O)c2ccc3[nH]c(=O)cc(C(=O)Nc4ccn(C)n4)c3c2)cc1 [Compound T3]	115%	81%	98%	–	–	~100 µM	–	10 µM	5-10 fold
NS(=O)(=O)c1ccc(NNC(=O)c2ccc(NS(=O)(=O)c3cccs3)cc2)c([N+](=O)[O-])c1 [Compound T1]	84%	92%	78%	–	–	~100 µM	–	20 µM	5-10 fold
O=C(Nc1ccc2nccnc2c1)c1ccc2c(c1)OCCO2 [Compound L4]	53%	113%	60%	–	–	25 µM	essentially nonselective	30 µM	–
O=C(NCc1ccc(Cn2ccnc2)cc1)c1ccc[nH]c1=S [Compound T4]	115%	82%	75%	non-competitive inhibition	non-competitive inhibition	7 µM	–	10 µM	–
COc1cc(CNC(=O)c2ccc[nH]c2=S)ccc1OCc1ccncc1 [Compound T2]	72%	83%	62%	–	–	18 µM	–	30 µM	–
COc1ccc(NC(=O)c2ccc3c(c2)OCCO3)cc1 [Compound L3]	88%	106%	77%	–	–	26 µM	essentially nonselective	29 µM	–
O=C(Nc1ccc2c(c1)OCO2)c1ccc2c(c1)OCCO2 [Compound L2]	48%	106%	63%	–	–	25 µM	–	100 µM	–
